Organism: Mus musculus
Test: Hypoglycemic activity in alloxan-diabetic female albino mice expressed as percentage reduction of plasma glucose levels
Assay type: functional
Parameters: concentration or dose not given beside the values

SMILES	Reduction [%]
Cc1cc(C)n(C(=O)c2ccncc2)n1	<1
Cc1nn(C(=O)c2ccc(NC(=O)NC3CCCCC3)cc2)c(C)c1Br	2.5
Cc1cc(C)n(C(=O)c2ccc(NC(=O)NC3CCCCC3)cc2)n1	20
Cc1cc(C)n(CC(=O)n2nc(C)cc2C)n1	2.5
CCNC(=O)NS(=O)(=O)c1ccc(C(=O)n2nc(C)cc2C)cc1	<1
CCNC(=O)NS(=O)(=O)c1ccc(-n2nc(C)c(Br)c2C)cc1	<1
CCCCNC(=O)NS(=O)(=O)c1ccc(NC(=O)n2nc(C)cc2C)cc1	7.5
CCCNC(=O)NS(=O)(=O)c1ccc(C(=O)n2nc(C)cc2C)cc1	<1
CCNC(=O)NS(=O)(=O)c1ccc(NC(=O)n2nc(C)c(Br)c2C)cc1	<1
Cc1cc(C)n(CC(=O)NNC(=O)NCc2ccccc2)n1	<1
CCCNC(=O)NS(=O)(=O)c1ccc(-n2nc(C)c(Br)c2C)cc1	2
Cc1nn(-c2ccc(S(=O)(=O)NC(=O)NC3CCCCC3)cc2)c(C)c1Br	2.5
Cc1nn(C(=O)c2ccc(S(=O)(=O)NC(=O)NC3CCCCC3)cc2)c(C)c1Br	1
Cc1nn(-c2ccc(S(=O)(=O)NC(=O)Nc3ccccc3)cc2)c(C)c1Br	<1
CCCNC(=O)Nc1ccc(C(=O)n2nc(C)c(Br)c2C)cc1	5
Cc1cc(C)n(C(=O)c2ccccc2O)n1	<1
Cc1cc(C)n(C(=O)c2ccc(S(=O)(=O)NC(=O)Nc3ccccc3)cc2)n1	2
Cc1nn(C(=O)c2ccc(NC(=O)Nc3ccccc3)cc2)c(C)c1Br	<1
CCCNC(=O)NS(=O)(=O)c1ccc(NC(=O)n2nc(C)c(Br)c2C)cc1	1
Cc1cc(C)n(C(=O)c2cccnc2)n1	<1
CCCNC(=O)NS(=O)(=O)c1ccc(NC(=O)n2nc(C)cc2C)cc1	6
CCCCNC(=O)NS(=O)(=O)c1ccc(-n2nc(C)c(Br)c2C)cc1	3

SMILES	Reduction [%]
Cc1cc(C)n(C(=O)Nc2ccc(S(=O)(=O)NC(=O)Nc3ccccc3)cc2)n1	2
CCNC(=O)NNC(=O)Cn1nc(C)cc1C	1
Cc1cc(C)n(C(=O)c2ccc(S(=O)(=O)NC(=O)NC3CCCCC3)cc2)n1	<1
Cc1nn(C(=O)c2ccc(S(=O)(=O)NC(=O)Nc3ccccc3)cc2)c(C)c1Br	3
CCCCNC(=O)Nc1ccc(C(=O)n2nc(C)cc2C)cc1	15
CCCCNC(=O)NS(=O)(=O)c1ccc(NC(=O)n2nc(C)c(Br)c2C)cc1	2
Cc1cc(C)n(C(=O)n2nc(C)cc2C)n1	2.5
CCCNC(=O)Nc1ccc(C(=O)n2nc(C)cc2C)cc1	8
Cc1cc(C)n(CC(=O)NNC(=O)NC2CCCCC2)n1	2.5
Cc1nn(C(=O)Nc2ccc(S(=O)(=O)NC(=O)NC3CCCCC3)cc2)c(C)c1Br	4
Cc1cc(C)n(C(=O)c2ccc(NC(=O)Nc3ccccc3)cc2)n1	6
CCCCNC(=O)NS(=O)(=O)c1ccc(C(=O)n2nc(C)cc2C)cc1	2
CCCNC(=O)NNC(=O)Cn1nc(C)cc1C	1
Cc1cc(C)n(C(=O)Nc2ccc(S(=O)(=O)NC(=O)NCc3ccccc3)cc2)n1	1
CCCCNC(=O)NNC(=O)Cn1nc(C)cc1C	2
Cc1nn(C(=O)c2ccc(S(=O)(=O)NC(=O)NCc3ccccc3)cc2)c(C)c1Br	2
Cc1cc(C)n(C(=O)Nc2ccc(S(=O)(=O)NC(=O)NC3CCCCC3)cc2)n1	9
CCNC(=O)NS(=O)(=O)c1ccc(C(=O)n2nc(C)c(Br)c2C)cc1	1
CCCCNC(=O)Nc1ccc(C(=O)n2nc(C)c(Br)c2C)cc1	6
CCNC(=O)NS(=O)(=O)c1ccc(NC(=O)n2nc(C)cc2C)cc1	4
Cc1cc(C)n(C(=O)c2ccc(S(=O)(=O)NC(=O)NCc3ccccc3)cc2)n1	<1

— ChEMBL document CHEMBL1122402, “Antidiabetic activity of some 1-substituted 3,5-dimethylpyrazoles” (1983)
